Laboratory results as given in US20150343016A1, “CHEMICAL ENTITIES AND THERAPEUTIC USES THEREOF” (The Regents of the University of Colorado, a body corporate, priority 2010, published 2015).
Read-outs that look alike come from different tables or passages of the source.

Assays:
Det562 cells = assay: MTT assay, Bouvardin with ionizing radiation, Det562 (same-day treatment); type: cell-based, human
Procedure: “Combination Index” computation. Combination Indices were calculated using CalcuSyn software (Biosoft), which uses the method of Chou and Talalay. This method first computes drug-induced effect using the Hill Equation: where E is the measured effect; C is the drug concentration; Emax is the full range of drug effect, usually at or near 100%; IC50 is the drug concentration producing the median effect of 50%; and n is the curve shape parameter describing the steepness of the concentration-effect relationship. The Chou and Talalay method then linearizes the Hill Equation by logarithmic transformation as: where fu is the fraction of cells left unaffected after drug exposure, fa is the fraction of cells affected by the exposure, C is the drug concentration used, Cm is the concentration to achieve the median effect, and n is the curve shape parameter. Cm and n are equivalent to IC50 and n, respectively, in the Hill Equation. The values of n (obtained from the slope), nlog(Cm) (obtained from the absolute value of the intercept), and, therefore, Cm are obtained by plotting log(fu−1−1) versus log(C). These numbers are then used to compute the Combination Index (CI) according to the formula: CI=(D)1/(Dx)1+(D)2/(Dx)2 (26). (Dx)1 and (Dx)2 are the doses required to achieve a given effect level for each treatment, i.e. a specified value of Fraction Affected or Fa. (D)1 and (D)2 are the doses of each treatment in a given combination which gives the same Fa.
For FIG. 19 MTT assays were used to determine the effect of Bouvardin (concentrations in uM) in combination with ionizing radiation (in Gy). The data from same-day treatment of IR and Bouvardin are shown, for comparison with taxol-Bouvardin combination that were also applied on the same day. In general, CI values were lower for FaDu cells than for Det562 cells in two separate experiments (only one set is shown). On Det562 cells, CI values were about 1 for most combinations. CI value for Det562 cells at 0.001 uM/1Gy and at >0.06 uM are not included in the graph because the values are >10 and would have made smaller values harder to see. On FaDu cells, CI values were below 1 at concentrations of 0.03 or lower, were about 1 for 0.06 uM drug, and were over 1 at higher concentrations.
The growth inhibitory effects of Bouvardin with ionizing radiation (IR) were evaluated using a modified tetrazolium salt (MTT) assay. In the MTT assay, 1,000 to 2,000 viable cells were plated in 100 uL of growth medium in 96-well plates (Corning, Ithaca, N.Y.). Following an overnight incubation, drug was added in varying concentrations and the plates were irradiated on the same day (co-treatment) or 24 hr later (pre-treatment) and incubated for 6 to 7 days. The tetrazolium salt was added at a concentration of 0.4 mg/mL to each well following the 6- to 7-day treatment. The plates were incubated with the salt for 4 hours at 37° C. At 4 hours, the medium was aspirated off, leaving the dark blue formazan product at the bottom of the wells. The reduced MTT product was solubilized by adding […] of 0.2 N HCl in 75% isopropanol, 23% MilliQ water to each well. Thorough mixing was done using a Titertek multichannel pipetman. The absorbency of each well was measured using an automated plate reader (Molecular Devices, Sunnyvale, Calif.). All experiments were done in triplicate.

[1] = system: head and neck squamous cell carcinola line (UMSCC2B); assay: MTT assay, bouvardin with radiation, UMSCC2B; type: cell-based, human; conditions: over a wide range of concentrations
Procedure: MTT assays were used to test the effects of bouvardin alone and in combination with radiation on numerous cell lines. Bouvardin and radiation synergize in non-small cell lung cancer cell line (H157) and head and neck squamous cell carcinola line (UMSCC2B) over a wide range of concentrations between bouvardin and radiation. FIG. 8 depicts this synergy in these two cell lines. The efficiency of bouvardin in sensitizing cancer cells to radiation is measured in terms of Combination Index (CI) as determined by Calcusyn software. CI values are either above, below or equal to 1, indicating antagonizing, synergistic or additive effects respectively. “Gy” in FIG. 8 stands for “Gray,” a radiation unit.
The growth inhibitory effects of Bouvardin with ionizing radiation (IR) were evaluated using a modified tetrazolium salt (MTT) assay. In the MTT assay, 1,000 to 2,000 viable cells were plated in 100 uL of growth medium in 96-well plates (Corning, Ithaca, N.Y.). Following an overnight incubation, drug was added in varying concentrations and the plates were irradiated on the same day (co-treatment) or 24 hr later (pre-treatment) and incubated for 6 to 7 days. The tetrazolium salt was added at a concentration of 0.4 mg/mL to each well following the 6- to 7-day treatment. […] The absorbency of each well was measured using an automated plate reader (Molecular Devices, Sunnyvale, Calif.). […]

LD50 in mice = conditions: mouse, in vivo

COc1ccc(C[C@H]2C(=O)N[C@H](C)C(=O)N(C)[C@@H]3C(=O)N(C)[C@@H](Cc4ccc(O)c(c4)Oc4ccc(cc4)[C@H]3O)C(=O)N[C@@H](C)C(=O)N[C@H](C)C(=O)N2C)cc1 (stereo in doubt) [Bouvardin, bouvardin]
interaction of Bouvardin with IR (Det562 cells): a wide range of effects, synergistic to antagonistic
CI value, Bouvardin with IR (Det562 cells; 0.001 uM/1Gy): > 10
CI value, Bouvardin with IR (Det562 cells; at >0.06 uM): > 10
interaction of Bouvardin with IR (Det562 cells; listed as bouvardin): synergizes with ionizing radiation
CI values, Bouvardin with IR (Det562 cells; most combinations): about 1
interaction of Bouvardin with radiation [1]: synergize
LD50 (LD50 in mice): 12.4 mg/kg
